The values that follow come from patent US9713605B2, “Ameliorative or preventive effect of Antrodia cinnamomea in arthritis, cartilage destruction, or chondrocyte death” (Simpson Biotech Co., Ltd., priority 2011, dated 2017).

Experiment [1] deals with cartilage destruction in ankle joints of arthritic mice. Briefly: Histopathological cartilage destruction score of ankle joints in CAIA. The experiment is classed as in vivo. The conditions noted are these: ankle joint harvested on day 10; mean±SD; arthritis group 2.063±0.776. The source says:
(§1) An arthritogenic monoclonal antibody (mAb) cocktail and lipopolysaccharide (LPS) were purchased from Immuno-Biological Laboratories (Hamburg, Germany). Arthritis was induced by the method of Terato et al. (Terato et al., Induction of arthritis with monoclonal antibodies to collagen. J Immunol. 1992 Apr. 1; 148(7):2103-8), using an arthritogenic mAb cocktail that contained four mAbs (F10, A2, D8, and D1) in equal amounts and using LPS as adjuvant. Three clones (F10, A2, and D8) were of type IgG2a, and one clone (D1) was type IgG2b. To induce arthritis, each mouse was injected intravenously with 2 mg of anti-CII mAbs followed by an intraperitoneal injection of 50 μg (BALB/c background) LPS (Escherichia coli 0111:B4) three days later. Isotype IgG (anti-mouse IgG, 2 mg, Jackson Lab.) supplied with LPS and only LPS induction groups were applied in same condition.
The ankle joints were fixed in 10% formalin, decalcified, trimmed, and embedded. Sections were prepared from the tissue blocks and stained with hematoxylin and eosin. Histopathological scoring was performed as described below. […] Two independent observers scored each slide, and the average score was used.
(§2) Data were analyzed by the t test and are expressed as mean±SD. […]

Experiment [2] has as its system collagen antibody-induced arthritis (CAIA) in BALB/c mice. Kind of experiment: Histopathological arthritis score of ankle joints in CAIA. The experiment is classed as in vivo. The settings on record: ankle joint harvested on day 10; mean±SEM; arthritis group 4.178±0.2023.
Source text: as §1
The ankle joints were fixed in 10% formalin, decalcified, trimmed, and embedded. Sections were prepared from the tissue blocks and stained with hematoxylin and eosin. Histopathological scoring was performed as described below. Ankle joints of arthritic mice were given arthritis scores of 0, 1, 2, 3, 4, and 5 to describe the arthritis according to the following criteria: 0, normal; 1, minimal infiltration of polymorphonuclear leukocytes in the periarticular area; 2, mild infiltration; 3, moderate infiltration; 4, marked infiltration; and 5, severe infiltration (Doherty, 2001. Risk factors for progression of knee osteoarthritis. Lancet 358:775-6). Three independent observers scored each slide, and the average score was used.
(§3) Data were analyzed by the Mann-Whitney U test and were expressed as mean±SEM. A P value <0.05 was considered significant.
(§4) In each group, the subjects were given the sample once daily ([…]) since day 0 to day 9 via oral intake and the subjects was administrated before the antibody and LPS injection.

The subject of experiment [3] is chondrocyte death in ankle joints of arthritic mice. Briefly: Histopathological chondrocyte death score of ankle joints in CAIA. The experiment is classed as in vivo. The conditions noted are these: ankle joint harvested on day 10; mean±SD; arthritis group 1.929±0.450.
Source text: as §1, with “Isotype IgG (anti-mouse IgG, 2 mg, Jackson Lab.) supplied with LPS and only LPS induction groups were applied in same condition.” left out
Ankle joints of arthritic mice were given chondrocyte death scores of 0, 1, 2, and 3 to describe the chondrocyte death according to the following criteria: 0, normal (FIG. 7A); 1, mild chondrocyte death (around less than ⅓ chondrocyte death in cartilage of all sections, FIGS. 7B, 7C); 2, moderate chondrocyte death (between ⅓ to ⅔ area chondrocyte death in the cartilage, FIG. 7D); 3, severe chondrocyte death (more than ⅔ chondrocyte death in the cartilage, FIG. 7E). Two independent observers scored each slide, and the average score was used.
as §2

Experiment [4] deals with collagen antibody-induced arthritis (CAIA) in BALB/c mice. Kind of experiment: Disease activity score (macroscopic scoring of four limbs) in acute stage of CAIA. The experiment is classed as in vivo. The settings on record: oral once daily; for disease activity score (maximum 60 per mouse): day 10, mean±SEM, arthritis group 53.71±2.763.
Source text: (§5) Male BALB/cByJNarl (BALB/c) mice were purchased at age six weeks from National Laboratory Animal Center (Taiwan) and subsequently bred and maintained under specific pathogen-free conditions in the Laboratory Animal Center of National Defense Medical Center (Taipei, Taiwan).
as §1
(§6) Arthritis development was monitored in the four limbs using a macroscopic scoring system. Briefly, one point was given for each swollen or red toe; one point for each swollen joint (metatarsal-phalangeal joints, metacarpal-phalangeal joints, proximal interphalangeal joints, and distal interphalangeal joints); and five points for a swollen ankle (maximum score=15 per limb and 60 per mouse) (Nandakumar et al., Collagen type II (CII)-specific antibodies induce arthritis in the absence of T or B cells but the arthritis progression is enhanced by CII-reactive T cells. Arthritis Res. Ther. 6 (2004), R544-R550). The mice were examined on days 0, 3, 7, 10 and 14 after the mAb injection. The thickness of each paw was measured in a noncontact manner using a Simplified Geometry Measurement System (Advanced Design Research Technology Co., Ltd). Images of the paws of each mouse were recorded three times (Chia et al., A noncontact footpad thickness assay to evaluate rheumatoid disease. Rheumatol Int. 2010 February; 30(4):547-50). One trained researcher who was blinded to group treatments evaluated the image data independently.
as §3, §4

Another experiment relates to IL-1β. Kind of experiment: Relative expression level of IL-1β mRNA in footpad (quantitative PCR) in CAIA. The experiment is classed as in vivo, mice. The conditions noted are these: day 10, mean±SEM, arthritis group 41.13±6.465.
Source text: as §1
Total RNA was isolated using the Trizol method. Footpad tissues were homogenized in Trizol lysis buffer followed by chloroform extraction (Life Technologies). The RNA was eluted with 20 μl of RNase-free water. All RNA was quantified by spectrophotometer, and the optical density (OD) 260/280 nm ratio was determined. For cDNA synthesis, 5 μg total RNA was reverse transcribed at 50° C. for 60 min using 200 units of Superscript III reverse transcriptase (Invitrogen). The primer sequence was as follows: IL1-β, forward primer (5′-[…]), reverse primer (5′-CTCGCAGCAGCACATCAAC); and GAPDH, forward primer (5′-[…]), reverse primer (5′-[…]). The SYBR Green master mix kit (Bio-Rad) was used for all reactions with real-time PCR. Briefly, PCR was performed as follows: 94° C. for 2 min followed by 40 cycles of denaturation; annealing; and extension at 94° C. for 15 s, 64° C. for 30 s, and 72° C. for 45 s; and final extension at 72° C. for 10 min. The PCR reaction was performed in triplicate for each sample for all the products and for the GAPDH control. Ratios for each product relative to GAPDH mRNA were calculated for each sample. The data presented are expressed as the fold-increase or fold-decrease in mRNA level. For all real-time PCR assays, the products were run out on a gel to confirm the presence of a single band.
as §3, §4

For experiment [5], the system named is collagen antibody-induced arthritis (CAIA) in BALB/c mice. Kind of experiment: Footpad thickness change in acute stage of CAIA. The experiment is classed as in vivo. The settings on record: day 10; oral once daily day 0 to day 9; mean±SEM; arthritis group 1.0446±0.0369.
Source text: as §5, §1, §6, §3, §4

Take `CC(C)=CCOc1ccc([C@H]2C(=O)N(O)C(=O)[C@@H]2CC(C)C)cc1` (relative stereo) [D group, 3R*,4S*-1-hydroxy-3-isobutyl-4-[4-(3-methyl-2-butenyloxy)phenyl]pyrrolidine-2,5-dione]: the “cartilage destruction score (0-3)” value in experiment [1] was determined as 1.167±0.144. The “arthritis score (histopathological, 0-5)” value in experiment [2] was found to be 3.458±0.559. Also, the “chondrocyte death score (0-3)” value in experiment [3] is recorded as 1.042±0.439. The “disease activity score, difference versus arthritis group” value in experiment [4] (day 7) was “significant difference”. Also, the “disease activity score (maximum 60 per mouse)” value in experiment [4] is listed as 39.687±5.238. For the same compound, in the experiment on IL-1β, the “relative expression levels of IL-1β (relative to GAPDH mRNA)” value (“relative expression levels of IL-1β” for short) was determined as 10.141±2.765. Also, the “footpad thickness (average increase compared to baseline)” value in experiment [5] stood at 0.729±0.114 mm.
For `CC(C)=CCOc1ccc(C2=C(CC(C)C)C(=O)OC2=O)cc1` [A group, 3-isobutyl-4-[4-(3-methyl-2-butenyloxy)phenyl]furan-2,5-dione], the “arthritis score (histopathological, 0-5)” value in experiment [2] is 2.093±0.541. In experiment [4], the “disease activity score (maximum 60 per mouse)” value came to 46.0±2.537. The “relative expression levels of IL-1β” value with IL-1β is recorded as 39.61±3.849. Also, the “footpad thickness (average increase compared to baseline)” value in experiment [5] amounted to 0.840±0.139 mm.
As for `CC(C)=CCOc1ccc(C2=C(CC(C)C)C(=O)NC2=O)cc1` [B group, 3-isobutyl-4-[4-(3-methyl-2-butenyloxy)phenyl]-1H-pyrrol-2,5-dione], the “disease activity score (maximum 60 per mouse)” value in experiment [4] worked out at 45.58±4.818. In addition, the “relative expression levels of IL-1β” value in the experiment with IL-1β was 16.873±4.82. The “footpad thickness (average increase compared to baseline)” value in experiment [5] was 0.837±0.177 mm.
`CC(C)=CCOc1ccc(C2=C(CC(C)C)C(=O)N(O)C2=O)cc1` [C group, 3-isobutyl-4-[4-(3-methyl-2-butenyloxy)phenyl]-1H-pyrrol-1-ol-2,5-dione]: the “cartilage destruction score (0-3)” value in experiment [1] is reported as 1.000±0.467. Also, the “arthritis score (histopathological, 0-5)” value in experiment [2] stood at 3.25±0.421. Moreover, in experiment [3], the “chondrocyte death score (0-3)” value amounted to 0.58±0.555. The “disease activity score (maximum 60 per mouse)” value in experiment [4] is reported as 47.718±3.581. Besides, the “relative expression levels of IL-1β” value with IL-1β is 20.714±4.751. Moreover, the “footpad thickness (average increase compared to baseline)” value in experiment [5] was 0.8605±0.098 mm.
